Assay results from ChEMBL document CHEMBL5150075 (J Med Chem, 2022).
pIC50: −log10 of the molar value. Activity calls are given as the source filed them. No cut-off for these calls is given here.

Key:
[1] = Mutagenicity in Salmonella typhimurium TA-100 at 0.5 to 500 ug per plate incubated for 72 hrs in presence or absence of S9 fraction by Ames test; type: toxicity, Salmonella enterica subsp. enterica serovar Typhimurium; conditions: in vivo, dose 0.5-500 µg
[2] = Stability in rat liver microsomes assessed as half life incubated in presence of NADPH by LC-MS/MS analysis; type: ADME, Microsome
[3] = Cmax in Kunming mouse at 20 mg/kg, po by LC-MS/MS analysis; type: ADME, organism-based; set-up: dose 20 mg/kg, route po; conditions: in vivo
MCF7 = test: cells; conditions: Homo sapiens, MCF7, 72 h
Description: Antiproliferative activity against human MCF7 cells assessed as inhibition of cell growth incubated for 72 hrs by MTT assay

DU-145 [4] = test: Induction of apoptosis in human DU-145 cells assessed as dead cells at 0.03 uM incubated for 48 hrs by Annexin V-FITC/PI staining based flow cytometry analysis (reference value: 1.05%); type: functional
A549 [5] = test: Antiproliferative activity against paclitaxel-resistant human A549 cells assessed as inhibition of cell growth incubated for 72 hrs by MTT assay; type: functional, cell-based; conditions: A549, 72 h
NCI-H1299 [6] = test: Antiproliferative activity against human NCI-H1299 cells assessed as inhibition of cell growth incubated for 72 hrs by MTT assay; type: functional, cell-based; conditions: NCI-H1299, 72 h
MCF7R = test: Antiproliferative activity against paclitaxel-resistant human MCF7R cells assessed as inhibition of cell growth incubated for 72 hrs by MTT assay; type: functional, cell-based; conditions: read-out: IC50
[7] = Stability in monkey liver microsomes assessed as half life incubated in presence of NADPH by LC-MS/MS analysis; type: ADME, Macaca mulatta, Microsome; conditions: rhesus monkey
DU-145 [8] = test: Induction of apoptosis in human DU-145 cells assessed as early apoptotic cells at 0.03 uM incubated for 48 hrs by Annexin V-FITC/PI staining based flow cytometry analysis (reference value: 1.97%); type: functional
HGC-27 = test: Antiproliferative activity against human HGC-27 cells assessed as inhibition of cell growth incubated for 72 hrs by MTT assay; type: functional, cell-based; conditions: HGC-27, 72 h
[9] = Mutagenicity in Salmonella typhimurium TA-1535 at 0.5 to 500 ug per plate incubated for 72 hrs in presence or absence of S9 fraction by Ames test; type: toxicity, Salmonella enterica subsp. enterica serovar Typhimurium; conditions: in vivo, dose 0.5-500 µg
[10] = Tmax in Kunming mouse at 20 mg/kg, po by LC-MS/MS analysis; type: ADME, organism-based; conditions: in vivo
DU-145 [11] = test: Induction of G2/M phase cell cycle arrest in human DU-145 cells assessed as increase in cyclin B1 expression at 0.03 to 0.3 uM measured after 12 hrs by Western blot analysis; type: functional, cell-based; conditions: dose 0.03-0.3 µM
Tubulin (Homo sapiens) [12] = target: T1, Tubulin (Homo sapiens) (UniProt P68371+Q9H4B7+P0DPH7+P68366+Q13509+Q71U36+P04350+Q3ZCM7+P07437+P68363+Q9BQE3+Q6PEY2+Q13885+Q9BVA1+Q9BUF5); test: Disruption of microtubule network in human DU-145 cells assessed as reduction in acetyl-alpha tubulin expression by Western blot analysis; type: cell-based; conditions: dose 0.03-0.3 µM
[13] = Cytotoxicity against African green monkey Vero cells assessed as reduction in cell viability measured after 48 hrs; type: toxicity, cell-based, Chlorocebus sabaeus
A549 [14] = test: Antitumor activity against paclitaxel-resistant human A549 cells xenografted in BALB/c nude mouse assessed as tumor growth inhibition at 20 mg/kg, po administered once daily and measured twice a week relative to control; type: functional; conditions: read-out: TGI
[15] = Mutagenicity in Salmonella typhimurium TA-102 at 0.5 to 500 ug per plate incubated for 72 hrs in presence or absence of S9 fraction by Ames test; type: toxicity, Salmonella enterica subsp. enterica serovar Typhimurium; conditions: in vivo, dose 0.5-500 µg
DU-145 [16] = test: Induction of G2/M phase cell cycle arrest in human DU-145 cells assessed as increase in histone H3 phosphorylation at Ser10 residue at 0.03 to 0.3 uM measured after 12 hrs by Western blot analysis; type: functional, cell-based; conditions: dose 0.03-0.3 µM
[17] = Stability in dog liver microsomes assessed as half life incubated in presence of NADPH by LC-MS/MS analysis; type: ADME, Canis lupus familiaris, Microsome
HCT-116 = test: cells; conditions: Homo sapiens, HCT-116, 72 h
Description: Antiproliferative activity against human HCT-116 cells assessed as inhibition of cell growth incubated for 72 hrs by MTT assay

Tubulin (Homo sapiens) [18] = target: T1, Tubulin (Homo sapiens); test: Disruption of microtubule network in human DU-145 cells assessed as cell shrinkage at 0.1 uM incubated for 16 hrs by Hoechst staining based confocal microscopy analysis
[19] = Half life in Kunming mouse at 2 mg/kg, iv by LC-MS/MS analysis; type: ADME, organism-based; conditions: in vivo
Tubulin (Homo sapiens) [20] = target: T1, Tubulin (Homo sapiens); test: Inhibition of [3H]colchicine binding to tubulin (unknown origin) at 1 uM incubated for 2 hrs by TopCount scintillation counting method relative to control; type: protein-complex assay
Bos taurus = species on record: Bos taurus; test: Inhibition of bovine brain tubulin polymerization measured every 30 secs by absorbance based analysis; conditions: dose 1-10 µM, time 30.0 sec, DDE = dose-dependent effect
A549 [21] = test: cells; conditions: Homo sapiens, A549, 72 h
[22] = Toxicity in BALB/c nude mouse xenografted with human NCI-H1299 cells assessed as reduction in body weight at 10 to 20 mg/kg, po administered once daily and measured twice a week; type: organism-based; conditions: in vivo, dose 10-20 mg/kg
NCI-H1299 [23] = test: Antitumor activity against human NCI-H1299 cells xenografted in BALB/c nude mouse assessed as suppression of tumor growth at 10 mg/kg, po administered once daily and measured twice a week relative to control; type: functional
B16-F10 = test: Antitumor activity against mouse B16-F10 cells implanted in C57BL/6 mouse assessed as tumor growth inhibition at 20 mg/kg, po administered once daily and measured twice a week relative to control; type: functional; conditions: read-out: TGI
[24] = Toxicity in BALB/c nude mouse xenografted with human DU-145 cells assessed as reduction in body weight at 5 mg/kg, po administered once daily and measured twice a week; type: organism-based; conditions: in vivo
DU-145 [25] = test: Induction of apoptosis in human DU-145 cells assessed as live cells at 0.1 uM incubated for 48 hrs by Annexin V-FITC/PI staining based flow cytometry analysis (reference value: 94.94%); type: functional
DU-145 [26] = test: Antiproliferative activity against human DU-145 cells assessed as inhibition of cell growth incubated for 48 hrs by real-time cell analysis; type: functional, cell-based; conditions: DU-145, 48 h
[27] = AUC (0 to t) in Kunming mouse at 20 mg/kg, po by LC-MS/MS analysis; type: ADME, organism-based; set-up: dose 20 mg/kg, route po; conditions: in vivo
DU-145 [28] = test: Induction of apoptosis in human DU-145 cells assessed as increase in cleaved PARP level at 0.003 to 0.3 uM incubated for 48 hrs by Western blot analysis; type: functional, cell-based; conditions: dose 0.003-0.3 µM
DU-145 [29] = test: Induction of apoptosis in human DU-145 cells assessed as dead cells at 0.1 uM incubated for 48 hrs by Annexin V-FITC/PI staining based flow cytometry analysis (reference value: 1.05%); type: functional
Tubulin (Homo sapiens) [30] = target: T1, Tubulin (Homo sapiens); test: Disruption of microtubule network in human DU-145 cells assessed as reduction in alpha tubulin expression by Western blot analysis; type: cell-based; conditions: dose 0.03-0.3 µM
[31] = Toxicity in BALB/c nude mouse xenografted with human DU-145 cells assessed as reduction in body weight at 10 mg/kg, po administered once daily and measured twice a week; type: organism-based; set-up: scale not given: the % may be the effect or the level left; conditions: in vivo
[32] = Selectivity index, ratio of IC50 for cytotoxicity against African green monkey Vero cells to IC50 for antiproliferative activity against human DU-145 cells; type: toxicity, cell-based; conditions: Vero cells and DU-145 cells, read-out: Ratio IC50

With Cc1ccc(S(=O)(=O)Nc2cc(C(=O)NCc3ccc(C)nc3)ccc2C)cc1 the Activity [1] was “Non-Toxic”, the half-life [2] was 2.3 min and the Cmax [3] was 2740 ng/mL. The pIC50 (MCF7) was 8.22, the Activity (DU-145 [4]) was 2.95% and the pIC50 (A549 [5]) was 7.52. The pIC50 (NCI-H1299 [6]) was 8.40, the pIC50 (MCF7R) was 7.85 and the half-life [7] was 95 min. For the same molecule, the Activity (DU-145 [8]) was 13.66%, the pIC50 (HGC-27) was 8.22 and the Activity [9] was “Non-Toxic”. For the same molecule, the Tmax [10] was 4.98 min, the Activity (DU-145 [11]) was “Active” and the Activity (Tubulin (Homo sapiens) [12]) was “Active”. For the same molecule, the IC50 at 48 h [13] was 40 nM, the inhibition in vivo at 20 mg/kg (A549 [14]) was 74.8% and the Activity [15] was “Non-Toxic”. For the same molecule, the Activity (DU-145 [16]) was “Active”, the half-life [17] was 132 min and the pIC50 (HCT-116) was 8.40. The Activity (Tubulin (Homo sapiens) [18]) was “Active”, the half-life [19] was 10.8 min and the inhibition (Tubulin (Homo sapiens) [20]) was 75%. The inhibition (Bos taurus) was “Dde”, the pIC50 (A549 [21]) was 7.60 and the Activity [22] was “Toxic”. The Activity (NCI-H1299 [23]) was 48.8%, the inhibition in vivo at 20 mg/kg (B16-F10) was 70.6% and the Activity [24] was “Non-Toxic”. It also gave an Activity (DU-145 [25]) of 43.52%, a pIC50 (DU-145 [26]) of 8.00 and an AUC(0-t) [27] of 2580 ng·h/mL. The Activity (DU-145 [28]) was “Active”, the Activity (DU-145 [29]) was 5.08% and the Activity (Tubulin (Homo sapiens) [30]) was “Active”. For the same molecule, the Activity [31] was 3.5% and the selectivity ratio [32] was 4.
